Laboratory results published in patent publication US9421281B2, “Target vector with activable imaging function” (Centre National de la Recherche Scientifique, priority 2005, dated 2016).

How the values were obtained:
[1] = system: subcutaneous tumor of IGROV-1 type; test: Optical imaging of tumors in the nude mouse (fluorescence reflectance imaging); format: in vivo, nude mice; conditions: 10 nmol/mouse i.v.; for evolution of the signal in the tumor over time / signal in the tumor compared with the control probe: IGROV-1 tumor, FIG. 12A; for contrast, ratio of signal between the tumor and the skin: compared with RAFT-(cRGD)4-Cy5-Cys-S—S-cysteine, FIG. 12B
Experimental: FIG. 12: Results of the in vivo injection of the molecular probes RAFT-(cRGD)4-Cy5-Cys-S—S-Cys=Cy5, RAFT-(cRGD)4-Cy5-Cys-S—S-Cys-QSY21, and RAFT-(cRGD)4-Cy5-Cys-S—S-Cys (control) in nude mice, imaged using a fluorescence imaging device (excitation 633 nm; detection λ>670 nm). Intravenous injection of 10 nmol of probe/mouse, in 100 μL of PBS (pH 7.1, 9.5 mM), into the tail of anesthetized mice carrying, on the back, a subcutaneous tumor of IGROV-1 type ([…] injected subcutaneously 2 weeks before imaging). A. Fluorescence intensity measured in the tumor over time. B. Ratio of the fluorescence intensities measured in the tumor and in the skin over time. C. Images obtained 10 minutes and 5 h after injection for the various molecular probes.
The mice used are female nude mice 6 to 8 weeks old, maintained under pathogen-free conditions. The IGROV-1 cells (human ovarian cancer model) are cultured in an RPMI 1640 culture medium containing 1% of glutamine, 10% of FCS, 50 U/ml of penicillin and 50 μg/ml of streptomycin. The cells are maintained at 37° C. under a humid atmosphere with 5% of CO2. 10×10^6 cells are injected subcutaneously into the back of the mice 2 weeks before injection of the molecular vectors RAFT-(cRGD)4-Cy5-Cys-S—S-Cys-Cy5 and RAFT-(cRGD)4-Cy5-Cys-S—S-Cys-QSY21. The latter are injected into the tail intravenously, in 100 μl of PBS (pH 7.1, 9.5 mM), at doses of 10 nmol/mouse.
The anesthetized mice are imaged with a fluorescence reflectance imaging (FRI) device, comprising as excitation source a crown of LEDs equipped with interference filters, emitting at 633 nm (illumination power 50 μW·cm^−2). The images are collected after filtration with an RG665 colored filter of optical density>5 at the excitation wavelength by means of a CCD camera (Orca BTL, Hamamatsu), with an exposure time of 100 ms. The signals are quantified using image processing software.

Hekβ3 cells = test: Penetration into the cells, laser scanning confocal microscopy; format: cell-based; conditions: 1 to 2 hours of incubation
Experimental: FIG. 13: Penetration of the labels into the cells, imaged by laser scanning confocal microscopy. Hekβ3 cells after 1 to 2 hours incubation in the presence of a negative control RAFT(4cRAD)-Cy5 (column 1), or in the presence of RAFT(4cRGD)-Cy5 (column 2), RAFT(4cRGD)-Cy5-Cys-S—S-Cys-Cy5 (column 3), or RAFT(4cRGD)-Cy5-Cys-S—S-Cys-quencher (column 4). The penetration into the cells of the probes RAFT-(cRGD)4-Cy5, RAFT-(cRGD)4-Cy5-Cys-S—S-Cys-Cy5 and RAFT-(cRGD)4-Cy5-Cys-S—S-Cys-QSY21 was observed on Hekβ3 cells, after 1 to 2 hours of incubation.

[2] = Chemical cleavage of the disulfide bridge with 2-mercaptoethanol (absorption and fluorescence); format: physicochemical; conditions: for fluorescence after chemical cleavage of the S—S disulfide bridge: imaging function grafted onto RAFT-(cRGD)4, 10 mM PBS, pH 7.2, [2-MCE]=85 mM; for fluorescence of the Cy5 fluorophore(s) before cleavage of the disulfide bridge: imaging function grafted onto RAFT-(cRGD)4, 0.5 or 0.10 μM in 10 mM PBS, pH 7.2
Excerpt: FIG. 5: Absorption and fluorescence of the imaging function Cy5-Cys-S—S-Cys-Cy5 before and after chemical cleavage of the disulfide bridge with 2-mercaptoethanol (2-MCE). A. Absorption spectrum and evolution thereof over time during the addition of 2-MCE. […] C. Evolution over time of the fluorescence of the imaging function during the addition of 2-MCE. […] FIG. 6: Absorption and fluorescence of the imaging function Cy5-Cys-S—S-Cys-QSY21 before and after chemical cleavage of the disulfide bridge with 2-mercaptoethanol (2-MCE). A. Absorption spectra and evolution thereof over time during the addition of 2-MCE. […] C. Evolution over time of the fluorescence of the imaging function during the addition of 2-MCE. […] FIG. 10: Absorption and fluorescence of the imaging function Cy5-Cys-S—S-Cys-Cy5 grafted onto RAFT-(cRGD)4, before and after chemical cleavage of the disulfide bridge with 2-mercaptoethanol (2-MCE). A. Absorption spectrum and evolution thereof over time during the addition of 2-MCE. […] C. Evolution over time of the fluorescence of the imaging function during the addition of 2-MCE. […] FIG. 11: Absorption and fluorescence of the imaging function Cy5-Cys-S—S-Cys-QSY21 grafted onto RAFT-(cRGD)4, before and after chemical cleavage of the disulfide bridge with 2-mercaptoethanol (2-MCE). A. Absorption spectrum and evolution thereof over time during the addition of 2-MCE. […] C. Evolution over time of the fluorescence of the imaging function during the addition of 2-MCE.

Row | Substance | evolution of the signal in the tumor over time [1] | signal in the tumor compared with the control probe [1] | contrast, ratio of signal between the tumor and the skin [1] | penetration into the cells (location of fluorescence) (Hekβ3 cells) | penetration into the cells (location of fluorescence) (Hekβ3 cells; listed as RAFT-Cy5-Cys-S—S-Cys-Q) | fluorescence after chemical cleavage of the S—S disulfide bridge [2] | fluorescence of the Cy5 fluorophore(s) before cleavage of the disulfide bridge [2]
1 | cysteine(Cy5)-S—S-cysteine(QSY21)RAFTc[RGDfK-]4 [RAFT-(cRGD)4-Cy5-Cys-S—S-Cys-QSY21] | gradual appearance of the signal in the tumor | more signal in the tumor | increases | clear fluorescence inside the cells | penetrates into the cells better | completely released | initially self-quenched
2 | cysteine(Cy5)-S—S-cysteineRAFTc[RGDfK-]4 [RAFT-(cRGD)4-Cy5-Cys-S—S-cysteine, reference compound] | decreases very rapidly over time | – | – | – | – | – | –
3 | cysteine(Cy5)-S—S-cysteine(Cy5)RAFTc[RGDfK-]4 [RAFT-(cRGD)4-Cy5-Cys-S—S-Cys-Cy5] | gradual appearance of the signal in the tumor | more signal in the tumor | increases | does not enter well | – | completely released | initially self-quenched
